From ChEMBL document CHEMBL1157303, “Bioactive triterpenoids from Salvia species” (J Nat Prod, 2006)
pIC50: −log10 of the molar value.

Experiments:
[1] = test system: Mus musculus; assay: Antiinflammatory activity against croton oil-induced ear edema in mouse; format: functional
[2] = Inhibition of rat DNA polymerase in absence of bovine serum albumin
[3] = Inhibition of rat DNA polymerase in presence of bovine serum albumin

| pIC50 [2] | pIC50 [3] | Structure (SMILES) | ID50 [1] |
| --- | --- | --- | --- |
|  |  | COc1ccc2c(c1)c(CC(=O)O)c(C)n2C(=O)c1ccc(Cl)cc1 [INDOMETHACIN] | 0.26 µmol |
| 5.43 | 5.12 | CC1(C)CC[C@]2(C(=O)O)CC[C@]3(C)C(=CC[C@@H]4[C@@]5(C)CC[C@H](O)C(C)(C)[C@@H]5CC[C@]43C)[C@@H]2C1 [OLEANOLIC_ACID] |  |
| 5.32 | 5.07 | C[C@H]1[C@H](C)CC[C@]2(C(=O)O)CC[C@]3(C)C(=CC[C@@H]4[C@@]5(C)CC[C@H](O)C(C)(C)[C@@H]5CC[C@]43C)[C@H]12 [URSOLIC ACID] | 0.14 µmol |
